Results reported in patent publication US20090018106A1, “INTRAVENOUS FORMULATIONS OF PYRIDOXAL 5'- PHOSPHATE AND METHOD OF PREPARATION” (Medicure International Inc., priority 2005, published 2009).
Read-outs that look alike come from different tables or passages of the source. One block for each molecule: values may come before it.

Tests used:
Type in all cases: in vivo, human
[1] = Cumulative urinary excretion after single intravenous dose of P5P (Example Three); settings: Percent (CV %)
Procedure: P5P, pyridoxal, and 4-pyridoxic acid were evaluated in both plasma and urine over a 24 hour interval following either intravenous or oral dosing. The results are set out below in Tables 2 and 3. The urinary excretion of the unchanged P5P is negligible. Less than 0.5% of the administered dose was found as P5P in the urine (Table 10). Similarly, very little of the dose was excreted in urine as PAL, between approximately 2 to 3% of the total dose (Table 10). PA represented the largest amounts found in urine. Over a 24-hour interval, between 30% and 52% of the given dose was excreted in urine as 4-pyridoxic acid.

[2] = Once daily intravenous 10 mg/kg P5P for four days, urinary excretion and renal clearance (Example Four); settings: P5P 10 mg/kg iv once daily, 4 days, mean; for CL renal: human, urine and plasma, iv, 10 mg/kg, read-out: CLR, renal clearance (converted)
Procedure: Data sets analyzed—Six (6) healthy, adult non-smokers were administered intravenously a single daily dose of 10 mg/kb of P5P for four consecutive days and completed the study. In accordance with the study protocol, data from all subjects who completed the study were used for pharmacokinetic and statistical analysis.
Analytical Methods—Plasma and urine samples were used for analysis. P5P, PAL, and PA levels were determined by HPLC/FLD. The quantitation level was 5 ng/mL for plasma and 100 ng/mL for urine. The sample analysis calibration curve range was 5 ng/mL to 5000 ng/mL for plasma and 100 ng/mL to 50,000 ng/mL for urine.
Total and Renal Clearance—Total body clearance was estimated for P5P and was calculated as Dose/AUC0-inf.

[3] = Single intravenous dose escalation of P5P, plasma pharmacokinetics (Examples Two and Three); settings: for Cmax / MRT / Tmax / half-life / AUC(0-inf) / AUC(0-t): both sexes, human; for Cmax / MRT / Tmax / half-life: plasma, iv; for Significance of b1, lnAUCi / Significance of b1, lnCmax / Significance of b1, lnMRT / Significance of b1, lnThalf / Coef. for Dose (b1), lnAUCi / Coef. for Dose (b1), lnCmax / Coef. for Dose (b1), lnMRT / Coef. for Dose (b1), lnThalf / Intercept (b0), lnAUCi / Intercept (b0), lnCmax / Intercept (b0), lnMRT / Intercept (b0), lnThalf: ln(pK Parameter) = b0 + b1 * ln (Dose); for Coef. for Dose (b1), lnAUCi / Coef. for Dose (b1), lnCmax / Coef. for Dose (b1), lnMRT / Coef. for Dose (b1), lnThalf / Intercept (b0), lnAUCi / Intercept (b0), lnCmax / Intercept (b0), lnMRT / Intercept (b0), lnThalf: single iv 1-20 mg/kg; for dose relationship of plasma AUCinf and Cmax: single iv P5P 1-20 mg/kg
Procedure: A phase one clinical trial was conducted to compare the pharmacokinetics of intravenously administered P5P and orally administered P5P. The trial was a single dose escalation study.
For intravenous administration, P5P was administered by bolus injection under fasting conditions. The following doses of P5P were studied: 1, 5, 10, and 20 mg/kg. 6 subjects were assigned to each dosage group.
P5P, pyridoxal, and 4-pyridoxic acid were evaluated in both plasma and urine over a 24 hour interval following either intravenous or oral dosing. The results are set out below in Tables 2 and 3.
Methodology—This was a single-blind, single-dose escalation, non-randomized, 4-phase, non-crossover study designed to evaluate the safety and […] subjects under fasting conditions and to estimate pharmacokinetic parameters of P5P.
Subjects were assigned to one of the four groups (six subjects per group) under fasting conditions.
Concentrations of pyridoxal-5′-phosphate (P5P) were measured from the plasma samples collected over a 24-bour interval after dosing in each phase.
Pharmacokinetic parameters: AUCt, AUCinf, Cmax, Tmax, Kel, Thalf, Vd, CL, MRT and F were estimated based on pyridoxal-5′-phosphate (P5P) plasma levels for each subject that was in the final data set.
The test product used was a P5P Intravenous Injectable Solution, 50 mg/ml, which was prepared in accordance with the methods of Example 1 (CanAm BioResearch Inc. Canada); Lot No.: LP1459: Manufacturing Date: 12/03. A single 1, 5, 10 or 20 mg/kg dose was given by intravenous injection. The duration of treatment was a single dose.
Secondary Endpoint—Pharmacokinetic (PK) Parameters—Plasma concentrations of pyridoxal-5′-phosphate (P5P) were measured by a validated analytical method. Based on these concentration levels, AUCt, AUCinf, Cmax, Tmax, Kel, Thalf, Vd, CL, MRT and F were estimated.
Statistical Methods—Descriptive statistics were calculated by treatments for the estimated pharmacokinetic parameters.

[4] = Group 1, dose of P5P 1 mg/1 kg, single iv
[5] = Group 3, P5P 10 mg/kg single iv
[6] = Group 4, dose of P5P, single iv
[7] = Group 1, P5P 1 mg/kg single iv, plasma PA, mean
[8] = Group 2, P5P 5 mg/kg single iv, plasma PA, mean
[9] = Group 3, P5P 10 mg/kg single iv, plasma PA, mean
[10] = Group 4, P5P 20 mg/kg single iv, plasma PA, mean
[11] = 1 mg/kg, Group 1, P5P 1 mg/kg single iv, plasma PA, mean
[12] = 5 mg/kg, Group 2, P5P 5 mg/kg single iv, plasma PA, mean
[13] = 10 mg/kg, Group 3, P5P 10 mg/kg single iv, plasma PA, mean
[14] = 20 mg/kg, Group 4, P5P 20 mg/kg single iv, plasma PA, mean
[15] = over all single iv doses of P5P (1-20 mg/kg), read-out: apparent elimination half-life (converted)
[16] = Group 1, P5P 1 mg/kg single iv, plasma PAL, mean
[17] = Group 2, P5P 5 mg/kg single iv, plasma PAL, mean
[18] = Group 3, P5P 10 mg/kg single iv, plasma PAL, mean
[19] = Group 4, P5P 20 mg/kg single iv, plasma PAL, mean
[20] = 1 mg/kg, Group 1, P5P 1 mg/kg single iv, plasma PAL, mean
[21] = 5 mg/kg, Group 2, P5P 5 mg/kg single iv, plasma PAL, mean
[22] = 10 mg/kg, Group 3, P5P 10 mg/kg single iv, plasma PAL, mean
[23] = 20 mg/kg, Group 4, P5P 20 mg/kg single iv, plasma PAL, mean

Cumulative Urinary Excretion as Percent of the Dose [1, 4]: 52.25 (28) Percent | Cumulative Urinary Excretion as Percent of the Dose ([1]; Group 2, P5P 5 mg/kg single iv): 47.18 (32) Percent | Cumulative Urinary Excretion as Percent of the Dose [1, 5]: 29.78 (32) Percent | Cumulative Urinary Excretion as Percent of the Dose [1, 6]: 40.55 (54) Percent | Ae0-t, total amount excreted in urine ([2]; Day 1, PA): 172950596 ng | Ae0-t, total amount excreted in urine ([2]; Day 4, PA): 225885311 ng | CL renal ([2]; Day 1, PA): 144 mL/min | CL renal ([2]; Day 4, PA): 179 mL/min | Kel [3, 7]: 0.311 h⁻¹ | Kel [3, 8]: 0.332 h⁻¹ | Kel [3, 9]: 0.268 h⁻¹ | Kel [3, 10]: 0.216 h⁻¹ | Cmax [3, 11]: 419 ng/mL | MRT [3, 11]: 4.5 h | Tmax [3, 11]: 1.04 h | half-life ([3]; 1 mg/kg, Group 1, P5P 1 mg/kg single iv, plasma PA, mean, read-out: T½ (converted)): 2.82 h | Cmax [3, 12]: 2450 ng/mL | MRT [3, 12]: 3.48 h | Tmax [3, 12]: 0.71 h | half-life ([3]; 5 mg/kg, Group 2, P5P 5 mg/kg single iv, plasma PA, mean, read-out: T½ (converted)): 2.12 h | Cmax [3, 13]: 5360 ng/mL | MRT [3, 13]: 3.85 h | Tmax [3, 13]: 0.74 h | half-life ([3]; 10 mg/kg, Group 3, P5P 10 mg/kg single iv, plasma PA, mean, read-out: T½ (converted)): 2.73 h | Cmax [3, 14]: 16100 ng/mL | MRT [3, 14]: 4.13 h | Tmax [3, 14]: 0.73 h | half-life ([3]; 20 mg/kg, Group 4, P5P 20 mg/kg single iv, plasma PA, mean, read-out: T½ (converted)): 3.48 h | half-life [3, 15]: 2 to 3.5 h | AUC(0-inf) [3, 7]: 1990 ng·h/mL | AUC(0-t) ([3]; Group 1, P5P 1 mg/kg single iv, plasma PA, mean, read-out: AUC(0-t)): 1500 ng·h/mL | AUC(0-inf) [3, 8]: 10700 ng·h/mL | AUC(0-t) ([3]; Group 2, P5P 5 mg/kg single iv, plasma PA, mean, read-out: AUC(0-t)): 10500 ng·h/mL | AUC(0-inf) [3, 9]: 23000 ng·h/mL | AUC(0-t) ([3]; Group 3, P5P 10 mg/kg single iv, plasma PA, mean, read-out: AUC(0-t)): 22700 ng·h/mL | AUC(0-inf) [3, 10]: 53000 ng·h/mL | AUC(0-t) ([3]; Group 4, P5P 20 mg/kg single iv, plasma PA, mean, read-out: AUC(0-t)): 51900 ng·h/mL | Significance of b1, lnAUCi [3]: <0.0001 | Significance of b1, lnCmax [3]: <0.0001 | Significance of b1, lnMRT [3]: 0.7995 | Significance of b1, lnThalf [3]: 0.2604 | Coef. for Dose (b1), lnAUCi [3]: 1.10 | Coef. for Dose (b1), lnCmax [3]: 1.20 | Coef. for Dose (b1), lnMRT [3]: −0.01 | Coef. for Dose (b1), lnThalf [3]: 0.08 | Intercept (b0), lnAUCi [3]: 0.62 | Intercept (b0), lnCmax [3]: −0.98 | Intercept (b0), lnMRT [3]: 1.37 | Intercept (b0), lnThalf [3]: 0.82
SMILES: Cc1ncc(CO)c(C(=O)O)c1O [PA, 4-pyridoxic acid]
dose relationship of plasma AUCinf and Cmax [3]: increase more than expected based on dose

Cumulative Urinary Excretion as Percent of the Dose [1, 4]: 1.93 (101) Percent | Cumulative Urinary Excretion as Percent of the Dose ([1]; Group 2, P5P 5 mg/kg single iv): 3.00 (37) Percent | Cumulative Urinary Excretion as Percent of the Dose [1, 5]: 2.73 (20) Percent | Cumulative Urinary Excretion as Percent of the Dose [1, 6]: 2.46 (33) Percent | Ae0-t, total amount excreted in urine ([2]; Day 1, PAL): 18583712 ng | Ae0-t, total amount excreted in urine ([2]; Day 4, PAL): 21011635 ng | CL renal ([2]; Day 1, PAL): 14.3 mL/min | CL renal ([2]; Day 4, PAL): 12.1 mL/min | Kel [3, 16]: 0.198 h⁻¹ | Kel [3, 17]: 0.18 h⁻¹ | Kel [3, 18]: 0.167 h⁻¹ | Kel [3, 19]: 0.177 h⁻¹ | Cmax [3, 20]: 591 ng/mL | MRT [3, 20]: 3.7 h | Tmax [3, 20]: 0.46 h | half-life ([3]; 1 mg/kg, Group 1, P5P 1 mg/kg single iv, plasma PAL, mean, read-out: T½ (converted)): 3.96 h | Cmax [3, 21]: 2480 ng/mL | MRT [3, 21]: 4.4 h | Tmax [3, 21]: 0.71 h | half-life ([3]; 5 mg/kg, Group 2, P5P 5 mg/kg single iv, plasma PAL, mean, read-out: T½ (converted)): 4.25 h | Cmax [3, 22]: 13300 ng/mL | MRT [3, 22]: 3.68 h | Tmax [3, 22]: 0.42 h | half-life ([3]; 10 mg/kg, Group 3, P5P 10 mg/kg single iv, plasma PAL, mean, read-out: T½ (converted)): 4.2 h | Cmax [3, 23]: 25900 ng/mL | MRT [3, 23]: 3.98 h | Tmax [3, 23]: 0.32 h | half-life ([3]; 20 mg/kg, Group 4, P5P 20 mg/kg single iv, plasma PAL, mean, read-out: T½ (converted)): 4.01 h | half-life [3, 15]: ~4 h | AUC(0-inf) [3, 16]: 2070 ng·h/mL | AUC(0-t) ([3]; Group 1, P5P 1 mg/kg single iv, plasma PAL, mean, read-out: AUC (0-t)): 2020 ng·h/mL | AUC(0-inf) [3, 17]: 10400 ng·h/mL | AUC(0-t) ([3]; Group 2, P5P 5 mg/kg single iv, plasma PAL, mean, read-out: AUC (0-t)): 10100 ng·h/mL | AUC(0-inf) [3, 18]: 39500 ng·h/mL | AUC(0-t) ([3]; Group 3, P5P 10 mg/kg single iv, plasma PAL, mean, read-out: AUC (0-t)): 39100 ng·h/mL | AUC(0-inf) [3, 19]: 95200 ng·h/mL | AUC(0-t) ([3]; Group 4, P5P 20 mg/kg single iv, plasma PAL, mean, read-out: AUC (0-t)): 94400 ng·h/mL | Significance of b1, lnAUCi [3]: <0.0001 | Significance of b1, lnCmax [3]: <0.0001 | Significance of b1, lnMRT [3]: 0.5671 | Significance of b1, lnThalf [3]: 0.5604 | Coef. for Dose (b1), lnAUCi [3]: 1.30 | Coef. for Dose (b1), lnCmax [3]: 1.30 | Coef. for Dose (b1), lnMRT [3]: 0.02 | Coef. for Dose (b1), lnThalf [3]: 0.03 | Intercept (b0), lnAUCi [3]: 0.56 | Intercept (b0), lnCmax [3]: −0.72 | Intercept (b0), lnMRT [3]: 1.33 | Intercept (b0), lnThalf [3]: 1.33
SMILES: Cc1ncc(CO)c(C=O)c1O [PAL, pyridoxal]
dose relationship of plasma AUCinf and Cmax [3]: increase more than expected based on dose
